Patent publication US9914760B2, “Methods of identifying, isolating and using odorant and aroma receptors” (Firmenich SA, priority 2013, dated 2018)

How the values were obtained:
Experiment in all cases: cell-based calcium-flux assay, HEK293T with Gα15
OR52N2 = molecular target: T1, OR52N2 (Homo sapiens, UniProt Q8NGI0); conditions: increasing concentrations; FIG. 6A, B
T1 construct: expressed in transfected cells
T1 sequence (Q8NGI0 1-321): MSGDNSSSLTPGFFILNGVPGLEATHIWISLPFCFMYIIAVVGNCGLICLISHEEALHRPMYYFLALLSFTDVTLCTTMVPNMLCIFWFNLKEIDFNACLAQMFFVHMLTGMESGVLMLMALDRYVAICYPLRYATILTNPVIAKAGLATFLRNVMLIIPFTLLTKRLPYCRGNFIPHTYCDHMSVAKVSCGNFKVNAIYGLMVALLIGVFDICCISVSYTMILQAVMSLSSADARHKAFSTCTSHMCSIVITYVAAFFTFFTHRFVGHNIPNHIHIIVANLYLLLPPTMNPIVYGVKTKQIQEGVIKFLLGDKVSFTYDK
From the text: (§1) The activity of candidate human indole and skatole malodors receptors OR52N2 (SEQ ID NO: 11 and SEQ ID NO: 12), OR11G2 (SEQ ID NO: 13 and SEQ ID NO: 14, OR5AC2 (SEQ ID NO: 75 and SEQ ID NO: 76), OR4C15 (SEQ ID NO: 79 and SEQ ID NO: 80), OR8S1 (SEQ ID NO: 83 and SEQ ID NO: 84), OR11H6 (SEQ ID NO: 15 and SEQ ID NO: 16) and OR11H4 (SEQ ID NO: 49 and SEQ ID NO: 50) and candidate mouse indole and skatole malodors receptors Olfr665 (SEQ ID NO: 9 and SEQ ID NO 10) and Olfr740 (SEQ ID NO: 1 and SEQ ID NO 2) were confirmed in cell-based calcium-flux assays (FIGS. 6A to 6J). Cells stably co-expressing Rho-tagged human OR52N2 (FIG. 6A, B) or OR11G2 (FIG. 6C) and Gα15 (SEQ ID NO: 25) were exposed to increasing concentrations of skatole or indole. FIG. 6B is a repeat experiment showing similar activity of OR52N2 with indole and skatole. Odorant-induced OR52N2 or OR11G2 activity was detected by measuring the maximum Calcium 5 dye (Molecular Devices) fluorescence change following odorant exposure. Activity is defined as the baseline corrected Relative Fluorescent Units (RFU) ratios normalized to the highest RFU in the experiment in FIG. 6A. […] A cell line lacking a receptor, for example hOR52N2, was used as a control for non-specific activity at high concentrations (‘Indole control’ and ‘Skatole control’). The human receptor OR52N2 (SEQ ID NO: 11 and SEQ ID NO: 12) was identified because of its sequence similarity to mouse Olfr665 (SEQ ID NO: 10), an indole/skatole receptor isolated from olfactory neurons responding to both indole and skatole. The human receptor OR11G2 (SEQ ID NO: 13 and SEQ ID NO: 14) was identified because of its sequence similarity to mouse Olfr740 (SEQ ID NO: 2), an indole/skatole receptor isolated from olfactory neurons responding to both indole and skatole. The receptors were modified with the Rho sequence and stably expressed in HEK 293T cells. Further examples show indole and skatole dose-response curves for human receptors OR5AC2, OR4C15, OR8S1, OR11H6, OR11H4 and mouse receptors Olfr665 and Olfr740 (FIG. 6D-J). The human receptor OR5AC2 (SEQ ID NO: 75 and SEQ ID NO: 76) was identified because of its sequence similarity to mouse Olfr207 (SEQ ID NO: 78), a receptor isolated from olfactory neurons responding to both indole and skatole. The human receptor OR4C15 (SEQ ID NO: 79 and SEQ ID NO: 80) was identified because of its sequence similarity to mouse Olfr211 (SEQ ID NO: 82), a receptor isolated from olfactory neurons responding to both indole and skatole. The human receptor OR8S1 (SEQ ID NO: 83 and SEQ ID NO: 84) was identified because of its sequence similarity to mouse Olfr257 (SEQ ID NO: 86), a receptor isolated from olfactory neurons responding to both indole and skatole. The human receptor OR11H6 (SEQ ID NO: 15 and SEQ ID NO: 16) was identified because of its sequence similarity to mouse Olfr745 (SEQ ID NO: 8), a receptor isolated from olfactory neurons responding to both indole and skatole. The human receptor OR11H4 (SEQ ID NO: 49 and SEQ ID NO: 50) was identified because of its sequence similarity to mouse Olfr746 (SEQ ID NO: 38), a receptor isolated from olfactory neurons responding to both indole and skatole. The mouse receptor Olfr665 (SEQ ID NO: 9 and SEQ ID NO: 10) was identified directly from NGS data from isolated olfactory neurons responding to both indole and skatole. The mouse receptor Olfr740 (SEQ ID NO: 1 and SEQ ID NO: 2) was identified directly from NGS data from isolated olfactory neurons responding to both indole and skatole. Co-expression of the human G alpha subunit Gα15 activates the Gq transduction pathway that leads to an internal Ca2+ increase upon binding to the appropriate ligand.

OR4C15 = molecular target: T2, OR4C15 (Homo sapiens, UniProt Q8NGM1); conditions: dose-response curves FIG. 6D-J
T2 construct: expressed in transfected cells
From the text: as §1

OR5AC2 = molecular target: T3, OR5AC2 (Homo sapiens, UniProt Q9NZP5); conditions: dose-response curves FIG. 6D-J
T3 construct: expressed in transfected cells
T3 sequence (Q9NZP5 1-309): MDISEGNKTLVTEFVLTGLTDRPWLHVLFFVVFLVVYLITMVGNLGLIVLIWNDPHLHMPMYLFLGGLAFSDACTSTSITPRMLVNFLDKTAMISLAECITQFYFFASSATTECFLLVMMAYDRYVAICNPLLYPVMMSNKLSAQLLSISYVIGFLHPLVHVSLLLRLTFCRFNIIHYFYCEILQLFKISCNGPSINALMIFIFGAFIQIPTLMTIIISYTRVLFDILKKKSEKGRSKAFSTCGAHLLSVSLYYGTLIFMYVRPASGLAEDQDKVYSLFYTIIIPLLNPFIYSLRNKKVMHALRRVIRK
From the text: as §1

T2 sequence (Q8NGM1 with tags, fused parts or gaps): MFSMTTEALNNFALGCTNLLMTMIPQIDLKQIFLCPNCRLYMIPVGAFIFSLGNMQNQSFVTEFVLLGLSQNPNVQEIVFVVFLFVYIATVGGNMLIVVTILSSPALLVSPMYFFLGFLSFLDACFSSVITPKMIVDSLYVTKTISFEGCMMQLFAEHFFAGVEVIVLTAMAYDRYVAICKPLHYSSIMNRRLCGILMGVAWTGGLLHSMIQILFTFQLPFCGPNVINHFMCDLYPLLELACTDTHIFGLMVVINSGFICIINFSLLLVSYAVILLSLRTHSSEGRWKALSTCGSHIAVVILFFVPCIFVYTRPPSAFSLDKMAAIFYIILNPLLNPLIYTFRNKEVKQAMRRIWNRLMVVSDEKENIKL

Compound | receptor activity (Calcium 5 dye fluorescence change) (OR52N2) | receptor response in vitro (OR4C15) | receptor response in vitro (OR5AC2)
Cc1c[nH]c2ccccc12 [skatole, 3-methyl indole] | dose-dependent increase of receptor activity | responded | responded
c1ccc2[nH]ccc2c1 [indole] | dose-dependent increase of receptor activity | responded | responded
